According to BindingDB's records for patent US20230322769 (Jiangsu Chia Tai Fenghai Pharmaceutical, 2023):
“And” between values parts separate entries of the source, which are not always exact repeats. Equal entries are not always repeated.

Experiments:
[1] = molecular target: Vascular endothelial growth factor receptor 2 (Homo sapiens, UniProt P35968); assay: Inhibition of RET Family Kinases Activity
[2] = molecular target: Proto-oncogene tyrosine-protein kinase receptor Ret (Homo sapiens, UniProt P07949); assay: Inhibition of RET Family Kinases Activity
Sequence of Proto-oncogene tyrosine-protein kinase receptor Ret (P07949 whole entry, the tested form may be a part): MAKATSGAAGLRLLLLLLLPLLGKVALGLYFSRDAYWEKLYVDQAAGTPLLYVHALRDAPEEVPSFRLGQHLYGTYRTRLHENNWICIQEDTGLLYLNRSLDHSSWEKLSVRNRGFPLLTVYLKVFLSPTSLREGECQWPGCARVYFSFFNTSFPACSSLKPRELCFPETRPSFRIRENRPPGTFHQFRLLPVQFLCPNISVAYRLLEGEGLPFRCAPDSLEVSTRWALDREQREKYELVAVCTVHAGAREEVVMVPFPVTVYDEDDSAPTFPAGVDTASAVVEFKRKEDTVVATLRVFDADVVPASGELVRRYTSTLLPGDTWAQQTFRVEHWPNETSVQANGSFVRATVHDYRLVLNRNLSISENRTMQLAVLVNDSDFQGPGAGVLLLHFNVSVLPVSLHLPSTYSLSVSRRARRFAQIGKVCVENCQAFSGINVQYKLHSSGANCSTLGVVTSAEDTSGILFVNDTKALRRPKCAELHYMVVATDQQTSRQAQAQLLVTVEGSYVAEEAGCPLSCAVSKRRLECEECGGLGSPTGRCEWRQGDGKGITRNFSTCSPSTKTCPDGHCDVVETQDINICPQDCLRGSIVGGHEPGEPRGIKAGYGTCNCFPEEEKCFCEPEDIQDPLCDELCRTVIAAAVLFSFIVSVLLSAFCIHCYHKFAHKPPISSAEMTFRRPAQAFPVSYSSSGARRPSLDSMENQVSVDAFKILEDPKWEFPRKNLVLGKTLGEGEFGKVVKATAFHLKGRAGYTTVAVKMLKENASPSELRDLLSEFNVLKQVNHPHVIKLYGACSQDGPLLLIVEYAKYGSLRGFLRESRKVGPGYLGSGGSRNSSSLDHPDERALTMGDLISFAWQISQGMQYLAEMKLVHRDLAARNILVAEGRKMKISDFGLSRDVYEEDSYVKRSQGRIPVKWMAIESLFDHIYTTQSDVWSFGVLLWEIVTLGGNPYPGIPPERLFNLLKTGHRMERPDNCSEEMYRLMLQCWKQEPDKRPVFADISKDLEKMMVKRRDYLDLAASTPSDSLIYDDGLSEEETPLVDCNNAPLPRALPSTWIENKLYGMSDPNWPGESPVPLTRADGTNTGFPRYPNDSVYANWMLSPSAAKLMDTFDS

[3] = molecular target: Coiled-coil domain-containing protein 6/Proto-oncogene tyrosine-protein kinase receptor Ret (Homo sapiens, UniProt P07949); assay: Inhibition of RET Family Kinases Activity
Sequence of Coiled-coil domain-containing protein 6/Proto-oncogene tyrosine-protein kinase receptor Ret (P07949 whole entry, the tested form may be a part): as above
Sequence of Coiled-coil domain-containing protein 6/Proto-oncogene tyrosine-protein kinase receptor Ret (Q16204 whole entry, further chain, the tested form may be a part): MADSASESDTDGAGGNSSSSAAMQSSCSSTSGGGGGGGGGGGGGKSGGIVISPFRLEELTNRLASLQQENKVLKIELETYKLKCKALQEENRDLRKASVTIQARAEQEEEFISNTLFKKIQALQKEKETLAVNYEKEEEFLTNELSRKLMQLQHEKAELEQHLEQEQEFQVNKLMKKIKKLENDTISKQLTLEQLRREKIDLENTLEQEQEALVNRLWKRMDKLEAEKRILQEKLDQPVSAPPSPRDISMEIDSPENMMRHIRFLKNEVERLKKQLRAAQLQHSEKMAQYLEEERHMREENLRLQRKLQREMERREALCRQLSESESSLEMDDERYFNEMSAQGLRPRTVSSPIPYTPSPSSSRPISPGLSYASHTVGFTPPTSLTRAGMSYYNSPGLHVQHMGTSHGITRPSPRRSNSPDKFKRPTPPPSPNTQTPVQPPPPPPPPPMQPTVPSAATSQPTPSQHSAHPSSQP

[4] = molecular target: Proto-oncogene tyrosine-protein kinase receptor Ret [V804M] (Human, UniProt P07949, V804M); assay: Inhibition of RET Family Kinases Activity
Sequence of Proto-oncogene tyrosine-protein kinase receptor Ret [V804M] (P07949 29-1114 V804M limits assumed): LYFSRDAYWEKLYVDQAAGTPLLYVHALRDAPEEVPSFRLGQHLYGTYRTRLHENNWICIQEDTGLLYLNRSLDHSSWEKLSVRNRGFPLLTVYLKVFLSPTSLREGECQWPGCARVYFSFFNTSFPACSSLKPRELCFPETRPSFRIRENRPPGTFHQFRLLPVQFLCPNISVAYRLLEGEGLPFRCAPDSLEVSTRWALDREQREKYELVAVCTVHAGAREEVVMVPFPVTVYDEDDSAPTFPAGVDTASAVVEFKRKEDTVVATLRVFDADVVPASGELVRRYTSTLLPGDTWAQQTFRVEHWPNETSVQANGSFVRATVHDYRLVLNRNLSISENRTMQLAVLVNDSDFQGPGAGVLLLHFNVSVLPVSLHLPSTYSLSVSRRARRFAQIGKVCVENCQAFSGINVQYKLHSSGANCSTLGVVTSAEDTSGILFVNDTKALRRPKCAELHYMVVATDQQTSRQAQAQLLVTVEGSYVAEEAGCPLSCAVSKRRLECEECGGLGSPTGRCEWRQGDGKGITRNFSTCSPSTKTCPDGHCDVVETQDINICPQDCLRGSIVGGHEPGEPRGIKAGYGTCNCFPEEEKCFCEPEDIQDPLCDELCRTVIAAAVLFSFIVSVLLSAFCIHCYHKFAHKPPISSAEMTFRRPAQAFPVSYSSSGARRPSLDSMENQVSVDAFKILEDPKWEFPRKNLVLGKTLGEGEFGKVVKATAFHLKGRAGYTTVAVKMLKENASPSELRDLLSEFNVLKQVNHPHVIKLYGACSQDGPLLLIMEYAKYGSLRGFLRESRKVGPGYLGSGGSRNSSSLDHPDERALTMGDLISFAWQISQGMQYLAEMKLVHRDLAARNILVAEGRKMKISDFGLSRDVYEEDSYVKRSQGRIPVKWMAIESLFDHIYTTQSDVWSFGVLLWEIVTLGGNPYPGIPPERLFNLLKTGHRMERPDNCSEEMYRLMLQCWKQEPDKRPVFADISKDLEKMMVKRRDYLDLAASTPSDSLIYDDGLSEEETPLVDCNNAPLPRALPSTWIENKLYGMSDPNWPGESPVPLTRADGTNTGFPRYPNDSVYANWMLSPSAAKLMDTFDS

[5] = molecular target: Proto-oncogene tyrosine-protein kinase receptor Ret [M918T] (Homo sapiens, UniProt P07949, M918T); assay: Inhibition of RET Family Kinases Activity
Sequence of Proto-oncogene tyrosine-protein kinase receptor Ret [M918T] (P07949 29-1114 M918T limits assumed): as the sequence (P07949 29-1114 V804M limits assumed) above, with M776V, M890T counted along it

[6] = molecular target: Potassium voltage-gated channel subfamily H member 2 (Homo sapiens, UniProt Q12809); assay: Inhibition of hERG Potassium Channel
Method: Whole-cell patch-clamp recording was carried out. […] This procedure was repeated every 20 seconds. The hERG tail current was a pure hERG current.

Sequence of Vascular endothelial growth factor receptor 2 (P35968 whole entry): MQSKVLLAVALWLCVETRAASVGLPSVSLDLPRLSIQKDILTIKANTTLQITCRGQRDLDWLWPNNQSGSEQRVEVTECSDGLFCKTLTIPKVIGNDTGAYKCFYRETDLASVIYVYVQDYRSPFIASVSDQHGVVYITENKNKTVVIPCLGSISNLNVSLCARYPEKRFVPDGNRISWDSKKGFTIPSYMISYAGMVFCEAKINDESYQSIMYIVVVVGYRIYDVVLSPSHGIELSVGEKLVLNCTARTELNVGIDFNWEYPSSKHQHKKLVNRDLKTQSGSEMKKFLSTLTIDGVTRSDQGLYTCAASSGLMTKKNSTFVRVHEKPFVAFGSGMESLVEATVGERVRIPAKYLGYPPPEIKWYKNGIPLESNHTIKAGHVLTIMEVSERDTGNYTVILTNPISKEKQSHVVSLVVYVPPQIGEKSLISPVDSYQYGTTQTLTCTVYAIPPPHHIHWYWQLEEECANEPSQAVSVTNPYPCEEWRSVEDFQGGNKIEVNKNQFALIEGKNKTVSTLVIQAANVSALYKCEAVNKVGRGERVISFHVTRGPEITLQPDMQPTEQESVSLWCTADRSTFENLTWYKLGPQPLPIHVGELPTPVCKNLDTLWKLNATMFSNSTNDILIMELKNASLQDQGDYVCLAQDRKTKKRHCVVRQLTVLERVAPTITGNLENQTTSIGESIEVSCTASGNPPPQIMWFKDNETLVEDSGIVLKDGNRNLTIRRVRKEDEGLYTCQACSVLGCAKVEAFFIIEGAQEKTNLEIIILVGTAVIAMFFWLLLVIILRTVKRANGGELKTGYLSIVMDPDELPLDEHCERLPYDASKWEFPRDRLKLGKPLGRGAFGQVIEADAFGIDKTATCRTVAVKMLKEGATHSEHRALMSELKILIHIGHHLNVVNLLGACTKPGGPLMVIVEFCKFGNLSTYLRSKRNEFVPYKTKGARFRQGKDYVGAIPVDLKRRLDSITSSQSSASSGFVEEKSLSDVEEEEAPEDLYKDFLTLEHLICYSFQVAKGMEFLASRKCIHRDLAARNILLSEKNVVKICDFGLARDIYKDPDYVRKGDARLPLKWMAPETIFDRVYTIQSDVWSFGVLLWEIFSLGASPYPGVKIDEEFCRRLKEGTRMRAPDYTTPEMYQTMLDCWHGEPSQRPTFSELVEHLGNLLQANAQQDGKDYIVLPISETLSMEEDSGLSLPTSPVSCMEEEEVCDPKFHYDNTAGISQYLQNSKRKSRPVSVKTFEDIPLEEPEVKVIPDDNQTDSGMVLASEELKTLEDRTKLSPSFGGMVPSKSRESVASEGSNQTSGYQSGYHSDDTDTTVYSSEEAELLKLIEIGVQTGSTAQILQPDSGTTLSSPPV

| Structure (SMILES) | IC50 [1] [nM] | IC50 [2] [nM] | IC50 [3] [nM] | IC50 [4] | IC50 [5] [nM] | IC50 [6] [nM] |
| --- | --- | --- | --- | --- | --- | --- |
| COc1ccc(CN2C3CC2CN(c2ccc(-c4cc(N5CC6CC(C5)N6)cn5ncc(C#N)c45)cn2)C3)cn1 [US20230322769, Compound 16] | 406 | 8.4 | 3.65 | 4.78 nM | 2.42 | – |
| COc1ccc(CN(C)CCN(C)c2ccc(-c3cc(-c4cnn(C)c4)cn4ncc(C#N)c34)cn2)cn1 [US20230322769, Compound 17-a] | – | 27.9 | 17.2 | 128 nM | 48.4 | – |
| COc1ccc(CN2C3CC2CN(c2ccc(-c4cc(N5CC6CC(C5)N6C)cn5ncc(C#N)c45)cn2)C3)cn1 [US20230322769, Compound 17] | 551 | 5.5 | – | 3.82 nM | 1.7 | – |
| COc1ccc(CN2C3CC2CN(c2ccc(-c4cc(N5CCP(C)(=O)CC5)cn5ncc(C#N)c45)cn2)C3)cn1 [US20230322769, Compound 20] | 340 | 4.1 | 2.14 | 3.23 nM | 1.45 | – |
| COc1ccc(CN2CCN(c3nc(-c4cc(-c5cnn(C)c5)cn5ncc(C#N)c45)cs3)CC2)cn1 [US20230322769, Compound 39] | – | 98.3 | – | 860 nM | 326 | – |
| COc1ccc(CN2CCC(n3cc(-c4cc(-c5cnn(C)c5)cn5ncc(C#N)c45)cn3)CC2)cn1 [US20230322769, Compound 43] | – | 30.9 | – | 242 nM | 53.1 | – |
| COc1ccc(CN2C3CC2CN(c2ccc(-c4cc(N5CCOCC5)cn5ncc(C#N)c45)cn2)C3)cn1 [US20230322769, Compound 65] | 92.8 | 1.09 | 0.52 | 3.37 nM | 0.92 | – |
| COc1ccc(CN2C3CC2CN(c2ccc(-c4cc(-c5cc6n(n5)CCC6)cn5ncc(C#N)c45)cn2)C3)cn1 [US20230322769, Compound 66] | – | 2.24 | – | 4.33 nM and 7.69 nM | 4.06 | – |
| COc1ccc(C(=O)N2CCN(c3ccc(-c4cc(-c5cc6n(n5)CCC6)cn5ncc(C#N)c45)cn3)CC2)cn1 [US20230322769, Compound 68] | 186 | 12.6 | 6.01 | 26.3 nM | 10.7 | – |
| COc1ccc(CN2CCCN(c3ccc(-c4cc(-c5cc6n(n5)CCC6)cn5ncc(C#N)c45)cn3)CC2)cn1 [US20230322769, Compound 70] | 387 | 26.6 | 30.7 | 111 nM | 42.8 | 4740 |
| COc1ccc(CN2C3CC2CN(c2ccc(-c4cc(NCC(C)(C)O)cn5ncc(C#N)c45)cn2)C3)cn1 [US20230322769, Compound 78] | 51.9 | 1.28 | 4.6 | 8.23 nM | 5.47 | – |
| COc1ccc(CN2C3CC2CN(c2ccc(-c4cc(N5CC(C)(C)OC5C5CC5)cn5ncc(C#N)c45)cn2)C3)cn1 (stereo unspecified) [US20230322769, Compound 80] | 566 | 21.6 | – | – | – | – |
| COc1ccc(CN2C3CC2CN(c2ccc(-c4cc(N(CC5CC5)CC(C)(C)O)cn5ncc(C#N)c45)cn2)C3)cn1 [US20230322769, Compound 81] | 612 | 193 | – | – | – | – |
| COc1ccc(CN2C3CC2CN(c2ccc(-c4cc(N5CCCC(O)C5)cn5ncc(C#N)c45)cn2)C3)cn1 (stereo unspecified) [US20230322769, Compound 82] | 280 | 10.7 | – | – | – | – |
| COc1ccc(CN2C3CC2CN(c2ccc(-c4cc(N5CCOC(C)C5)cn5ncc(C#N)c45)cn2)C3)cn1 (stereo unspecified) [US20230322769, Compound 83] | – | 15.8 | – | – | – | – |
| COc1ccc(CN2C3CC2CN(c2ccc(-c4cc(N5CCOC[C@@H]5C)cn5ncc(C#N)c45)cn2)C3)cn1 [US20230322769, Compound 84] | – | 24.8 | – | – | – | – |
| COc1ccc(CN2C3CC2CN(c2ccc(-c4cc(N5CCOC[C@H]5C)cn5ncc(C#N)c45)cn2)C3)cn1 [US20230322769, Compound 85] | – | 19 | – | – | – | – |
| COc1ccc(CN2C3CC2CN(c2ccc(-c4cc(N5CC(C)(O)C5)cn5ncc(C#N)c45)cn2)C3)cn1 [US20230322769, Compound 86] | 71.3 | 4.56 | – | – | – | – |
| COc1ccc(CN2C3CC2CN(c2ccc(-c4cc(N5CC6(COC6)C5)cn5ncc(C#N)c45)cn2)C3)cn1 [US20230322769, Compound 88] | 96.9 | 7.22 | – | – | – | – |
| COc1ccc(CN2C3CC2CN(c2ccc(-c4cc(N5CCN(C)C(=O)C5)cn5ncc(C#N)c45)cn2)C3)cn1 [US20230322769, Compound 89] | 157 | 0.674 | 3.04 | 4.72 nM | 1.47 | – |
| COc1ccc(CN2C3CC2CN(c2ccc(-c4cc(N5CCN(C)CC5)cn5ncc(C#N)c45)cn2)C3)cn1 [US20230322769, Compound 94] | 154 | – | 3 | – | 2.78 | – |
| COc1ccc(CN2C3CC2CN(c2ccc(-c4cc(N5CCNCC5)cn5ncc(C#N)c45)cn2)C3)cn1 [US20230322769, Compound 96] | 240 | 5.24 | – | – | – | – |
